Measured values: publication PMC5733301, “Antitubercular Nitroimidazoles Revisited: Synthesis and Activity of the Authentic 3-Nitro Isomer of Pretomanid” (ACS Medicinal Chemistry Letters, 2017)
Converted amounts (≈) assume the structure as drawn.

Columns and labels:
[1] = set-up: method as in PMID 23733467; settings: MDR-TB patients; ref [14]; cited from earlier work
[2] = system: VERO cells; test: Cytotoxicity against mammalian cells (VERO), 72 h assay; assay type: cell-based; settings: Chlorocebus sabaeus, cytotoxicity toward VERO cells
[3] = system: M. tb (strain H37Rv); set-up: method as in PMID 25781074; settings: aerobic, growth inhibition ≥90%, ref [15]; cited from earlier work
[4] = system: M. tb (strain H37Rv); set-up: method as in PMID 25781074; settings: hypoxic, growth inhibition ≥90%, ref [15]; cited from earlier work
[5] = system: M. tb (strain H37Rv); test: MABA, MIC against M. tb under aerobic conditions; assay type: cell-based, Mycobacterium tuberculosis
[6] = system: M. tb (strain H37Rv); test: LORA, MIC against M. tb under hypoxic conditions (nonreplicating persistent bacteria); assay type: cell-based, Mycobacterium tuberculosis; settings: vs 4 and 3
[7] = system: M. tb; set-up: method as in PMID 19209889; settings: ref [22]; cited from earlier work
[8] = system: M. tb; set-up: method as in PMID 19209889; settings: ref [22]; cited from earlier work; remark: listed apart in the source
[9] = system: Mycobacterium tuberculosis (M. tb); set-up: method as in PMID 19209889; settings: vs 4; ref [22]; cited from earlier work

## Cc1ncc([N+](=O)[O-])n1CCO [MET, metronidazole]
[1]
  neurotoxicity in long-term use: too neurotoxic for long-term use

## O=[N+]([O-])c1cn2c(n1)OC[C@@H](OCc1ccc(OC(F)(F)F)cc1)C2 [compound 4, pretomanid]
[2]
  IC50: > 128 µM
[3]
  MIC MABA: 0.50 ± 0.30 µM (≈ 0.18 µg/mL)
[4]
  MIC LORA: 2.6 ± 1.4 µM (≈ 0.934 µg/mL)

## O=[N+]([O-])c1cnc2n1C[C@H](OCc1ccc(OC(F)(F)F)cc1)CO2 [compound 8]
[5]; M. tb MIC vs 4
  loss in activity in comparison to its 2-nitro isomer, 4: > 256 fold

## Cc1cc(CO[C@@H]2COc3nc([N+](=O)[O-])cn3C2)ccc1OC(F)(F)F [compound 9]
[5]; MABA, vs 4 and 6
  more active than both 4 and moxifloxacin (6) in MABA: seven- to eight-fold
[5]; MABA, vs pretomanid
  more potent than pretomanid in the aerobic assay: eight-fold
[6]
  better than both 4 and linezolid (3) in LORA: about three-fold

## O=[N+]([O-])c1cn2c(n1)O[C@H](COCc1ccc(OC(F)(F)F)cc1)C2 [compound 20]
[7]
  aerobic MIC99: 4 to 8 µM
[8]
  anaerobic MIC90: 31 µM
[9]
  less active than 4: 5- to 10 fold
